Test results reported in patent US12139498B1, “Positive allosteric modulators of the muscarinic acetylcholine receptor M4” (Vanderbilt University, priority 2023, dated 2024).

Assays:
Human M4 = target: T1, Human M4 (Homo sapiens, UniProt P08173); test: M4 cell-based functional assay (calcium mobilization); design: expressed in transfected cells; details: for Emax at 30 µM: % ACh maximum at 30 μM; for EC50: CHO-K1 hM4-Gqi5 cells, calcium flux, increase in EC20 acetylcholine response
T1 sequence (P08173 1-479): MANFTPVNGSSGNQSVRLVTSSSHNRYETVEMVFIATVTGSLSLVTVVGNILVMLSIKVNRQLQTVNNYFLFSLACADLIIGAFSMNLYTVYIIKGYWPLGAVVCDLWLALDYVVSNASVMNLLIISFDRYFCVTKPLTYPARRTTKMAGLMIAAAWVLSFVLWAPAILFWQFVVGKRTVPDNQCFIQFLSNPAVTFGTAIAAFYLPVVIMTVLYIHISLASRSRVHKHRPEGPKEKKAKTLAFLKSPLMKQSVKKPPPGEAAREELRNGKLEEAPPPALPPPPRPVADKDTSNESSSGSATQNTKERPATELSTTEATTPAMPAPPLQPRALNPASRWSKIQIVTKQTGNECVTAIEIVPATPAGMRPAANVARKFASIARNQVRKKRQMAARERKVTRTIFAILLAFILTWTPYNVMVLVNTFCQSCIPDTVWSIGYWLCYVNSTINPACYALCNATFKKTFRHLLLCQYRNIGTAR
Procedure, shortened: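 CHO-K1 cells stably co-expressing hM4 and chimeric Gqi5, loaded with Fluo-4-AM (1.15 μM final, 45 min, 37° C). Compound added ~140 s before EC20 then EC80 acetylcholine; calcium flux by kinetic fluorescence (ex 480/em 530 nm), expressed as fold over basal and normalized to maximal ACh response (1 mM).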

male Sprague-Dawley rats = test: Amphetamine-induced hyperlocomotion in rats; details: 10 mg/kg p.o., amphetamine 0.25 mg/kg s.c., p<0.001

| Emax at 30 µM (Human M4) [%] | EC50 (Human M4) [nM] | Compound | percent reversal of amphetamine-induced hyperlocomotion (male Sprague-Dawley rats) [%] |
| --- | --- | --- | --- |
| 91 | 12 | Cc1c(N2CCc3nc(C4CC4)sc3C2)nc2nn(CC3(C#N)CC3)c(=O)n2c1C [Compound 73, 1-((7-(2-cyclopropyl-6,7-dihydrothiazolo[5,4-c]pyridin-5(4H)-yl)-5,6-dimethyl-3-oxo-[1,2,4]triazolo[4,3-a]pyrimidin-2(3H)-yl)methyl)cyclopropane-1-carbonitrile] | – |
| 94 | 7 | Cc1c(N2CCc3nc(C4CC4)sc3C2)nc2nn(CC3CC3(F)F)c(=O)n2c1C (stereo not shown) [Compound 74, 7-(2-cyclopropyl-6,7-dihydrothiazolo[5,4-c]pyridin-5(4H)-yl)-2-((2,2-difluorocyclopropyl)methyl)-5,6-dimethyl-[1,2,4]triazolo[4,3-a]pyrimidin-3(2H)-one] | – |
| 111 | 15 | Cc1c(N2CCc3nc(C4CC4)sc3C2)nc2nn(CC3CC3)c(=O)n2c1C [Compound 75, 7-(2-cyclopropyl-6,7-dihydrothiazolo[5,4-c]pyridin-5(4H)-yl)-2-(cyclopropylmethyl)-5,6-dimethyl-[1,2,4]triazolo[4,3-a]pyrimidin-3(2H)-one] | – |
| 105 | 87 | Cc1c(N2CCc3nc(C4CC4)sc3C2)nc2nn(CC3CC(F)(F)C3)c(=O)n2c1C [Compound 76, 7-(2-cyclopropyl-6,7-dihydrothiazolo[5,4-c]pyridin-5(4H)-yl)-2-((3,3-difluorocyclobutyl)methyl)-5,6-dimethyl-[1,2,4]triazolo[4,3-a]pyrimidin-3(2H)-one] | – |
| 121 | 9 | Cc1c(N2CCc3nc(C4CC4)sc3C2)nc2nn(C)c(=O)n2c1C [Compound 77, 7-(2-cyclopropyl-6,7-dihydrothiazolo[5,4-c]pyridin-5(4H)-yl)-2,5,6-trimethyl-[1,2,4]triazolo[4,3-a]pyrimidin-3(2H)-one] | – |
| 109 | 18 | Cc1c(N2CCc3nc(C4(F)CC4)sc3C2)nc2nn(CC3CC3)c(=O)n2c1C [Compound 78, 2-(cyclopropylmethyl)-7-(2-(1-fluorocyclopropyl)-6,7-dihydrothiazolo[5,4-c]pyridin-5(4H)-yl)-5,6-dimethyl-[1,2,4]triazolo[4,3-a]pyrimidin-3(2H)-one] | – |
| – | – | Cc1nnc2sc(C(=O)NCc3ccc(S(=O)(=O)C(F)(F)F)cc3)c(N)c2c1C [VU0467154, reference compound] | 52.7 |
